# Structures can show the parent of a compound that is named as a salt.
# Molecular target: T1, rat liver HMG-CoA reductase (Rattus norvegicus, UniProt P51639)
# T1 construct: from tissue; host or cells: rat liver microsomes
# T1 sequence (P51639 1-887): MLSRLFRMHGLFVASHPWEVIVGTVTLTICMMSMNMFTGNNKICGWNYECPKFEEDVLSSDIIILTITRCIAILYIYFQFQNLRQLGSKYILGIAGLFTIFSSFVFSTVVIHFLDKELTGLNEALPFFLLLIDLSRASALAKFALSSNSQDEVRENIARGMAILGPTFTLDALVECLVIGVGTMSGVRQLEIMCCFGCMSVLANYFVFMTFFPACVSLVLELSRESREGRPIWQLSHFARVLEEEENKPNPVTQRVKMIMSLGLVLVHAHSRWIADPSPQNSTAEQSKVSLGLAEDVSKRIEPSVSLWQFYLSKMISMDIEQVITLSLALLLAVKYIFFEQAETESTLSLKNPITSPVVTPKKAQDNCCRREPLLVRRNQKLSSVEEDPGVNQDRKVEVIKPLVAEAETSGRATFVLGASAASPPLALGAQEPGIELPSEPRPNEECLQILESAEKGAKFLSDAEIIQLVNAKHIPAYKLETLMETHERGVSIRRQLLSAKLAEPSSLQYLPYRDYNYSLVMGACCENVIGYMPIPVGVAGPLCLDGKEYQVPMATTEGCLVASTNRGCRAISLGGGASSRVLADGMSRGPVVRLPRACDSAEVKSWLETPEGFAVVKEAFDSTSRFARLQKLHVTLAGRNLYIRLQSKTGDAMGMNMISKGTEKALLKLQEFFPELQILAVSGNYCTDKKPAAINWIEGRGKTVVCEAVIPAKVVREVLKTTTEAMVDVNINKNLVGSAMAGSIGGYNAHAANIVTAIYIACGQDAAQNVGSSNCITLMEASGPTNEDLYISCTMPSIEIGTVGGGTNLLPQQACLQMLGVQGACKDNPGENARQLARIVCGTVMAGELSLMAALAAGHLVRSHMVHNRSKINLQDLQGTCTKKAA
# Experiment: Test A: In Vitro Inhibition of Microsomal HMG-CoA Reductase
# Format: biochemical
# Settings: intact, fully activated microsomal form of rat liver enzyme; [3-14C]-HMG-CoA 0.33 mM; NADPH 3.0 mM; pH 7.2; at least 4 dilutions in duplicate
# Procedure: Test A: In Vitro Inhibition of Microsomal HMG-CoA Reductase:
# The intact, fully activated microsomal form of rat liver HMG-CoA reductase (subunit MW ca 100,000 daltons) was prepared as described by Parker, et al., Biochem. Biophys. Res. Commun., 125, 629-635 (1984), and used as the source of enzyme for assays. HMG-CoA reductase activity was determined essentially by the method of Shapiro, et al., Biochem. Biophys. Acta., 370. 369-377 (1974), with modifications as described by Ingebritsen and Gibson, Meth. Enzymol. 71. 486-497 (1981) with the exception that the internal standard ^3 H-mevalonolactone is added after termination of the assay. In this procedure, the enzyme is assayed by measuring the formation of product, ^14 C-mevalonate, from the substrate, [3-^14 C]-HMG-CoA, in the presence of NADPH. The ^14 C-mevalonate is converted to its lactone and isolated by silica thin-layer chromatography (Whatman LK5D, developed in 50:50 benzene:acetone) in the presence of ^3 H-mevalonolactone as an internal standard. Assays were conducted under conditions in which product formation was linear with respect to time and enzyme concentration.
# To measure reductase inhibition, test compounds dissolved in water or dimethylsulfoxide and diluted in buffer A (50 mM imidazole-HCl, 250 mM NaCl, 1 mM EDTA, 1 mM EGTA, 5 mM DTT, 20 μM leupeptin, pH =7.2) were incubated with aliquots of microsomes (80-160 μg protein in buffer A) followed by addition of d,l-[3-^14 C]-HMG-CoA (0.33 mM, 2.0 dpm/picomole) and NADPH (3.0 mM). The 50 percent inhibitory concentration IC50) for each compound in Table 1 was calculated from the linear regression line of the percent decrease (from control) in enzyme activity vs. log concentration of inhibitor, determined using at least 4 dilutions of each test compound assayed in duplicate.
row,SMILES,IC50
1,"CC(C)C(C=C[C@@H](O)C[C@@H](O)CC(=O)O)=C(c1ccc(F)cc1)c1ccc(F)cc1 (relative stereo) [Example 8, Erythro-9,9-bis(4-fluorophenyl)-3,5-dihydroxy-8-(1-methylethyl)-6,8-nonadienoic acid sodium salt]",265 nM
2,"CC(C)(C)C(C=C[C@@H](O)C[C@@H](O)CC(=O)O)=C(c1ccc(F)cc1)c1ccc(F)cc1 (relative stereo) [Example 42, Erythro-9,9-bis(4-fluorophenyl)-3,5-dihydroxy-8-(1,1-dimethylethyl)-6,8-nonadienoic acid sodium salt]",500 nM
3,"O=C(O)C[C@H](O)C[C@H](O)C=CC(=C(c1ccc(F)cc1)c1ccc(F)cc1)C1CC1 (relative stereo) [Example 51, Erythro-8-cyclopropyl-9,9-bis(4-fluorophenyl)-3,5-dihydroxy-6,8-nonadienoicacid sodium salt]",450 nM
4,"CCC(C=C[C@@H](O)C[C@@H](O)CC(=O)O)=C(c1ccc(F)cc1)c1ccc(F)cc1 (relative stereo) [Example 59, Erythro-8-ethyl-9,9-bis(4-fluorophenyl)-3,5-dihydroxy-6,8-non adienoate sodium salt]",410 nM
5,"O=C(O)C[C@H](O)C[C@H](O)C=CC(=C(c1ccc(F)cc1)c1ccc(F)cc1)C(F)(F)F (relative stereo) [Example 73, Erythro9,9-bis(4-fluorophenyl)-3,5-dihydroxy-8-trifluoromethyl-6,8-nonadienoic acid sodium salt]",1580 nM

# Tested on: Isolated Hepatocyte Cholesterol Biosynthesis
# Experiment: Test B: Isolated Hepatocyte Cholesterol Biosynthesis Assay
# Format: cell-based, male Wistar rats
# Settings: freshly isolated rat hepatocytes, 10 min preincubation, 60 minutes at 37°, pH 7.35, incorporation of 3H or 14C into sterols, read-out: IC50, Inhibition of Isolated Hepatocyte Cholesterol Biosynthesis
# Procedure: Test B: Isolated Hepatocyte Cholesterol Biosynthesis Assay:
# Intact parenchymal hepatocytes were isolated from male Wistar rats (180-280 g) fed cholestyramine containing or normal diet, using the collagenase perfusion method essentially as described by Seglen, in Methods in Cell Biology (D. Prescott, ed.) Vol. 13, pp. 29-83, Academic Press, New York (1976). Cell preparations were used only when viability (trypan blue exclusion) exceeded 90%. Cholesterol biosynthesis was determined as the incorporation by hepatocytes of ^3 H from [^3 H]-water into total (cellular plus medium) 3β-hydroxy sterols as per Ingebritsen, et al., J. Biol. Chem., 254, 9986-9989 (1979). Hepatocyte sterols and lipids were isolated by a modification of the methods described by Kates, in Techniques in Lipidology. (M. Kates, ed.), pp. 349, 360-363, North Holland Publ. Co., Amsterdam, 1972. To isolate sterols, cells are extracted with methanol:chloroform:water (2:1:0.8), the chloroform phase is separated and extracted with benzene to remove traces of water, then dried under nitrogen. The residue is saponified at 75° C. with 0.30 N NaOH in methanol:water (9:1). […] The ^3 H-labelled sterols are quantified by liquid scintillation and corrected for counting efficiency. […]
row,SMILES,IC50
1,"CC(C)C(C=C[C@@H](O)C[C@@H](O)CC(=O)O)=C(c1ccc(F)cc1)c1ccc(F)cc1 (relative stereo) [Example 8, Erythro-9,9-bis(4-fluorophenyl)-3,5-dihydroxy-8-(1-methylethyl)-6,8-nonadienoic acid sodium salt]",27 nM
2,"CC[C@H](C)C(=O)O[C@H]1C[C@@H](C)C=C2C=C[C@H](C)[C@H](CC[C@@H]3C[C@@H](O)CC(=O)O3)[C@H]21 [Mevinolin (Lovastatin), reference compound]",46 ± 26 nM

# — patent publication US5011947A, “Antihypercholesterolemic alkylene compounds” (Bristol-Myers, priority 1990, dated 1991)
